Patent US12121596B2, “Near infrared fluorescent dyes, formulations and related methods” (Washington University, priority 2019, dated 2024)
Positions of bridges follow the written chain, without caps; N, C: chain ends. Non-standard residues stand in square brackets, D forms with d. Residues, ends and D or L forms follow the SMILES beside them. *: point of attachment. X1 = CC1(C)C(/C=C/C=C/C=C/C=C2/N(CCC(=O)*)c3ccc4ccccc4c3C2(C)C)=[N+](CCC(=O)[O-])c2ccc3ccccc3c21

Experiments:
[1] = system: cells expressing wild-type ANXA2 or mutant ANXA2 (Y23A); assay: LS301 internalization with insulin in cells expressing wild-type or mutant ANXA2 (Y23A); type: cell-based
Experimental: For LS301 cell internalization studies involving insulin treatment, cells were grown on Lab-Tek slides overnight. HEK 293T cells (or in some cases 4T1 cells) were maintained in DMEM medium supplemented with 10% fetal bovine serum and 100 units/mL penicillin. After DNA transfection, the HEK 293TAnxa2-WT-GFP and HEK 293TAnxa2-Y23A-GFP cells were maintained in Dulbecco's Modified Eagle's medium (DMEM) medium with 500 μg/mL G418, 10% fetal bovine serum (FBS), and 100 units/mL penicillin. The medium was changed, and cells were grown in serum-starved conditions overnight. Cells were then cultivated with or without 100 nM insulin for 4 h. Then 1 μM of LS301 was added to each sample to incubated for 4 hours or 24 hours at 37° C. Cells were imaged using an FV1000 confocal microscope, and the mean fluorescence intensities (Ex/Em=488/495 nm; Ex/Em=590/617 nm; Ex/Em=780/805-830 nm) were determined using the FV1000 software.

pANXA2 = pANXA2 (Homo sapiens, UniProt P07355); assay: Microscale thermophoresis (MST), pANXA2 binding; conditions: read-out: apparent Kd, pANXA2
Excerpt: (§1) Recombinant proteins and antibodies. Recombinant annexin A2, annexin A2 with glutathione-S-transferase (GST) tag, annexin A1, and annexin A3 proteins were purchased from MyBioSource, Inc. (San Diego, CA, USA). Purified ANXA2 protein and purified pANXA2 protein were gifts from Dr. Gabriel Bimme (Beth Israel Deaconess Medical Center, Boston, MA). Rabbit monoclonal anti-annexin A2 antibody (D11G2, #8235), Rabbit monoclonal anti-Rab5 (C8B1, #3547), and rabbit monoclonal anti-Rab7 (D95F2, #936 7) primary antibodies were purchased from Cell Signaling Technology, Inc. (Danvers, MA, USA). Mouse monoclonal anti-β-actin 2A3 (sc-517582), mouse monoclonal anti-pANXA2 antibody (11.Tyr 24) (sc-135752), rabbit polyclonal anti-NOS2 (C-19, sc-649), rabbit polyclonal anti-ARG1 (H-52, sc-20150) antibodies, and protein A/G agarose were purchased from Santa Cruz Biotechnology, Inc. (Dallas, TX, USA). […]
(§2) MST was performed using the Monolith NT.115 (Nanotemper Technologies, Munich, Germany). […] Fluorescence was assessed in MST-2 buffer (50 mM Tris-HCl, pH 7.4; 150 mM NaCl; 10 mM MgCl2). […] The apparent Kd values were calculated from fragment concentration-dependent changes in normalized fluorescence (Fraction Bound) of LS301 after 5 seconds of thermophoresis based on mass action law using the MO Affinity Analysis v2.3 software.

[2] = biological target: T1, ANXA2 over ANXA1 and ANXA3 (Homo sapiens, UniProt P07355); assay: Annexin selectivity, fluorescent gel binding; conditions: ANXA2 vs ANXA1 and ANXA3
T1 construct: GST; purchased MyBioSource, Inc
Experimental: For fluorescent gel binding experiments, 1 μg recombinant annexin A2 protein was incubated with LS301 or cypate (10 μM) at 37° C. for the periods indicated. Samples were subjected to SDS-PAGE on precast gels (Bio-Rad, Hercules, CA), and gels were imaged for near-infrared fluorescence (800 nm) using a Pearl Small Animal Imager (LI-COR Biosciences, Lincoln, NE, USA). For competitive binding experiments, Annexin A2-GST, annexin A1, or annexin A3 (1.0 μg protein per sample) was pre-incubated with or without 2.5 mM of LS637 (non-fluorescent LS301 analog; blocking peptide) in binding buffer (25 mM Tris-HCl pH 7.4, 150 mM NaCl, 1 mM MgCl2, 1 mM CaCl2) for 1 hour at 37° C. Ten μM. LS301 was then added to each sample. After incubation for 2 hours at 37° C., proteins were subjected to SDS-PAGE and imaged fluorescently. For some experiments, LS301 was incubated with 4T1 tumor cells before SDS-PAGE.

ANXA3 = biological target: T2, ANXA3 (Homo sapiens, UniProt P12429); assay: Microscale thermophoresis (MST), ANXA3 binding; conditions: read-out: apparent Kd, ANXA3
T2 construct: purchased MyBioSource, Inc
T2 sequence (P12429 1-323): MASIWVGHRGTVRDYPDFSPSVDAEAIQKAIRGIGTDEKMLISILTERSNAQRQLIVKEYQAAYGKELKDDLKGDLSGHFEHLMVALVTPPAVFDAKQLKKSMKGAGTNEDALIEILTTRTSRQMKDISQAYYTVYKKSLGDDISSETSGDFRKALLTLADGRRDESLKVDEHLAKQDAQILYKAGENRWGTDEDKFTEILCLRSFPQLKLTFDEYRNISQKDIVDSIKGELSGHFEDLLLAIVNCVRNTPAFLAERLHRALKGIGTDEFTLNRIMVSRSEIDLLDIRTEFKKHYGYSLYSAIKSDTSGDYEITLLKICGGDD
Excerpt: as §1, §2

ANXA2 = ANXA2 (Homo sapiens, UniProt P07355); assay: Microscale thermophoresis (MST), ANXA2 binding; conditions: read-out: apparent Kd, ANXA2
Excerpt: as §1, §2

pANXA2, sequence (P07355 2-339 limits assumed): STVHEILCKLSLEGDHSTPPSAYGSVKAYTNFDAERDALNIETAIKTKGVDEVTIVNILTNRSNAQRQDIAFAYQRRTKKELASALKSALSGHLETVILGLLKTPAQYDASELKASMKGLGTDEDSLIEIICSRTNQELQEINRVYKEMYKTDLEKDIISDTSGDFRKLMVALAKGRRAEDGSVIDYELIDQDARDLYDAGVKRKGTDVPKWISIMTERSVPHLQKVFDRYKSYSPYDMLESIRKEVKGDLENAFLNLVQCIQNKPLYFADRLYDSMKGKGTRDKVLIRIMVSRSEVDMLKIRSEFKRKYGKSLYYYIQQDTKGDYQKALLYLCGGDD
T1 sequence (P07355 whole entry): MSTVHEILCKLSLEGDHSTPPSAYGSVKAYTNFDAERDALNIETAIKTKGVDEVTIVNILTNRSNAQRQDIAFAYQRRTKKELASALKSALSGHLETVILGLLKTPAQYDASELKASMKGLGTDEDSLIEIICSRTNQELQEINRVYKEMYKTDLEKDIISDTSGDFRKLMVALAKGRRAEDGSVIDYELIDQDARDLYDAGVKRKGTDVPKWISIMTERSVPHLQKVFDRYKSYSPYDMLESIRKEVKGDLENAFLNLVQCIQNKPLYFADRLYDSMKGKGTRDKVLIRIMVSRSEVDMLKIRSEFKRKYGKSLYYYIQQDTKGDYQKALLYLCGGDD
ANXA2, sequence (P07355 whole entry): as above

CC1(C)C(/C=C/C=C/C=C/C=C2/N(CCC(=O)N[C@@H]3CSSC[C@@H](C(=O)N[C@@H](CCCCN)C(=O)O)NC(=O)[C@@H]4CCCN4C(=O)[C@H](CO)NC(=O)[C@H](CC(=O)O)NC(=O)[C@H](CCCNC(=N)N)NC(=O)CNC3=O)c3ccc4ccccc4c3C2(C)C)=[N+](CCC(=O)[O-])c2ccc3ccccc3c21 [LS301, cypate-cyclic (DCys-Gly-Arg-Asp-Ser-Pro-Cys)-Lys-OH] (X1-[dC]GRDSPCK-OH; disulfide 1-7)
cellular uptake of LS301, mutant ANXA2 (Y23A) cells ([1]; insulin stimulation): minimal LS301 uptake | cellular uptake of LS301, wild-type ANXA2 cells ([1]; stimulation with insulin): increased pANXA2 expression and cellular uptake of LS301 | Kd (pANXA2): 0.075 ± 0.002 nM | annexin binding preference [2]: preferentially targets ANXA2 over ANXA1 and ANXA3 | Kd (ANXA3): 6.13 ± 0.28 nM | Kd (ANXA2): 0.389 ± 0.015 nM
